Values quoted from earlier work as cited in patent US12029226B2, “Concentrate for preparing a drinkable solution (II)” (Alzchem Trostberg GmbH, priority 2019, dated 2024).

Conditions: literature value

Structure (SMILES) | pKs value
O=CO [formic acid] | 3.77
CC(O)C(=O)O (centres unmarked) [lactic acid] | 3.90+/−0.11
